We go through 33 compounds from patent publication US20250388593A1 (MITSUBISHI TANABE PHARMA CORPORATION, priority 2023, published 2025).

CRBN truncate (318-426), sequence (Q96SW2 318-426): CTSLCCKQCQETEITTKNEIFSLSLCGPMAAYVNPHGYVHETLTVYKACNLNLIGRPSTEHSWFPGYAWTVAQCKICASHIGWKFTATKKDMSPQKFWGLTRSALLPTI

The target in the assay is CRBN truncate (318-426) (Homo sapiens (Human), UniProt Q96SW2). Description: Measurement of molecular interactions using surface plasmon resonance (SPR), Biacore T200. The format is binding. Conditions: 25° C., immobilized CRBN truncate, upper limit of measurement 200 μM. In outline:
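Compound injections used 60 s association and 120 s dissociation in HEPES pH 7.5 buffer (150 mM NaCl, 1 mM TCEP, 0.005% Tween 20, 2% DMSO). The ligand was CRBN truncate 318-426 bearing a C-terminal Avi-tag, immobilised via streptavidin on an SA sensor chip.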
(In SPR one partner is held on a chip, and binding of the other changes the refractive index at the surface.)
The term Kd denotes a measure of binding affinity in units of concentration. A low value points to tighter binding. For the compound `Cc1sc2c(c1C)C(c1ccc(Cl)cc1)=N[C@@H](CC(=O)NCCCCCCCCNC(=O)/C=C/c1cccc3c1N(C)C(=O)C3(C)N1C=CCC(=O)NC1=O)c1nnc(C)n1-2` (stereo partly drawn) [Example 348, (E)-N-[8-[[2-[(9S)-7-(4-chlorophenyl)-4,5,13-trimethyl-3-thia-1,8,11,12-tetrazatricyclo[8.3.0.02,6]trideca-2(6),4,7,10,12-pentaen-9-yl]acetyl]amino]octyl]-3-[3-(2,4-dioxo-5H-1,3-diazepin-1-yl)-1,3-dimethyl-2-oxoindolin-7-yl]prop-2-enamide], the Kd is < 50 µM. As for `Cn1nc(N2CCCC(=O)NC2=O)c2ccc(CCC(=O)OC(C)(C)C)cc21` [Example 291, tert-Butyl 3-[3-(2,4-dioxo-1,3-diazepan-1-yl)-1-methylindazol-6-yl]propanoate], the figure is 50 to 100 µM; as for `Cc1ccc(NC(=O)NCc2ccccc2C(=O)N2CCC3(CCCC(=O)NC3=O)C2)cc1Cl` (stereo not drawn) [Example 156, 1-(3-Chloro-4-methylphenyl)-3-[[2-(6,8-dioxo-2,7-diazaspiro[4.6]undecane-2-carbonyl)phenyl]methyl]urea], ≥ 100 µM. As for `CC(C)(C)OC(=O)NCCn1c(=O)n(C2CCCC(=O)NC2=O)c2ccccc21` (stereo not drawn) [Example 197, tert-Butyl N-[2-[3-(2,7-dioxoazepan-3-yl)-2-oxobenzimidazol-1-yl]ethyl]carbamate], the figure is ≥ 100 µM; as for `Cc1sc2c(c1C)C(c1ccc(Cl)cc1)=N[C@@H](CC(=O)NCCCCCCCCn1ccc3c(N4CCC5(CCCC(=O)NC5=O)C4)ncnc31)c1nnc(C)n1-2` (stereo partly drawn) [Example 319, 2-[(9S)-7-(4-chlorophenyl)-4,5,13-trimethyl-3-thia-1,8,11,12-tetraazatricyclo[8.3.0.02,6]trideca-2(6),4,7,10,12-pentaen-9-yl]-N-[8-[4-(6,8-dioxo-2,7-diazaspiro[4.6]undecan-2-yl)pyrrolo[2,3-d]pyrimidin-7-yl]octyl]acetamide], < 50 µM. For `CC(C)(C)OC(=O)c1ccc(C2(F)CCCC(=O)NC2=O)cc1` (stereo not drawn) [Example 243, tert-Butyl 4-(3-fluoro-2,7-dioxoazepan-3-yl) benzoate] the value was ≥ 100 µM; for `CC(C)(C)OC(=O)NCCCCCCc1ccc(C(=O)N2CCC3(CCCC(=O)NC3=O)C2)cc1Cl` (stereo not drawn) [Example 160, tert-Butyl N-[6-[2-chloro-4-(6,8-dioxo-2,7-diazaspiro[4.6]undecane-2-carbonyl)phenyl]hexyl]carbamate], 50 to 100 µM; for `Cc1sc2c(c1C)C(c1ccc(Cl)cc1)=N[C@@H](CC(=O)NCCCCCCCCOc1ccc(C#N)c(N3CCC4(CCCC(=O)NC4=O)C3)c1)c1nnc(C)n1-2` (stereo partly drawn) [Example 320, 2-[(9S)-7-(4-chlorophenyl)-4,5,13-trimethyl-3-thia-1,8,11,12-tetraazatricyclo[8.3.0.02,6]trideca-2(6),4,7,10,12-pentaen-9-yl]-N-[8-[4-cyano-3-(6,8-dioxo-2,7-diazaspiro[4.6]undecan-2-yl)phenoxy]octyl]acetamide], < 50 µM.

On to `CNC(=O)c1ccc(N2CCC3(CCCC(=O)NC3=O)C2)nc1` (stereo not drawn) [Example 96, 6-(6,8-Dioxo-2,7-diazaspiro [4.6]undecan-2-yl)-N-methylpyridine-3-carboxamide], for which the dissociation constant Kd is ≥ 100 µM.

Take `Cc1sc2c(c1C)C(c1ccc(Cl)cc1)=N[C@@H](CC(=O)NCCCCCCCNC(=O)CN1CCC3(CCCC(=O)NC3=O)CC1=O)c1nnc(C)n1-2` (stereo partly drawn) [Example 345, 2-[(9S)-7-(4-chlorophenyl)-4,5,13-trimethyl-3-thia-1,8,11,12-tetraazatricyclo[8.3.0.02,6]trideca-2(6),4,7,10,12-pentaen-9-yl]-N-[7-[[2-(4,7,9-trioxo-3,8-diazaspiro[5.6]dodecan-3-yl)acetyl]amino]heptyl]acetamide]: the dissociation constant Kd fell in the range of 50 to 100 µM. As for `Cc1sc2c(c1C)C(c1ccc(Cl)cc1)=N[C@@H](CC(=O)NCCCCCCCCNC(=O)COc1ccc(C#N)c(N3CCC4(CCCC(=O)NC4=O)C3)c1)c1nnc(C)n1-2` (stereo partly drawn) [Example 339, 2-[(9S)-7-(4-chlorophenyl)-4,5,13-trimethyl-3-thia-1,8,11,12-tetraazatricyclo[8.3.0.02,6]trideca-2(6),4,7,10,12-pentaen-9-yl]-N-[8-[[2-[4-cyano-3-(6,8-dioxo-2,7-diazaspiro[4.6]undecan-2-yl)phenoxy]acetyl]amino]octyl]acetamide], the figure is < 50 µM; as for `O=C1CCCC(NC(=O)c2cccc(-c3ccccc3)c2)C(=O)N1` (stereo not drawn) [Example 21, N-(2,7-dioxoazepan-3-yl)-3-phenylbenzamide], ≥ 100 µM; as for `CC(=O)N1CCN(Cc2ccc(N3CCC4(CCCC(=O)NC4=O)C3)nc2)CC1` (stereo not drawn) [Example 89, 2-[5-[(4-Acetylpiperazin-1-yl)methyl]pyridin-2-yl]-2,7-diazaspiro[4.6]undecane-6,8-dione], ≥ 100 µM. On to `CN(C1CCCC(=O)NC1=O)S(=O)(=O)c1ccc(Cl)cc1` (stereo not drawn) [Example 7, 4-Chloro-N-(2,7-dioxoazepan-3-yl)-N-methylbenzenesulfonamide], for which the equilibrium dissociation constant (Kd) was ≥ 100 µM.

`CC(C)(C)OC(=O)c1ccnc(N2CC3(CC(=O)N(C4CCC(=O)NC4=O)C3=O)C2)c1` (stereo not drawn) [Example 46, tert-Butyl 2-[6-(2,6-dioxopiperidin-3-yl)-5,7-dioxo-2,6-diazaspiro[3.4]octan-2-yl]pyridine-4-carboxylate] displayed a Kd of 50 to 100 µM.

Consider `O=C1CCOC(c2ccccc2)C(=O)N1` (stereo not drawn) [Example 18, 2-Phenyl-1,4-oxazepane-3,5-dione], for which the Kd is ≥ 100 µM. `CC(C)(C)OC(=O)c1cnc(N2CCC3(CCCC(=O)NC3=O)C2)s1` (stereo not drawn) [Example 95, tert-Butyl 2-(6,8-dioxo-2,7-diazaspiro [4.6]undecan-2-yl)-1,3-thiazole-5-carboxylate]: the Kd is ≥ 100 µM. As for `CC(C)(C)OC(=O)c1ccc(N2CC[C@@]3(CCCC(=O)NC3=O)CC2=O)cc1` [Example 224, tert-Butyl 4-(4,7,9-trioxo-3,8-diazaspiro [5.6]dodecan-3-yl) benzoate], the figure is ≥ 100 µM; as for `O=C1CCCC(n2nc(I)c3ccccc32)C(=O)N1` (stereo not drawn) [Example 135, 3-(3-Iodoindazol-1-yl)azepane-2,7-dione], < 50 µM. For `O=C1CCCC(N2C(=O)OCc3cc([N+](=O)[O-])ccc32)C(=O)N1` (stereo not drawn) [Example 274, 3-(6-Nitro-2-oxo-4H-3,1-benzoxazin-1-yl) azepane-2,7-dione] the value was ≥ 100 µM. The compound `CC(C)(C)OC(=O)c1ccc(N2CC3(CC(=O)N(C4CCC(=O)NC4=O)C3=O)C2)nc1` (stereo not drawn) [Example 45, tert-Butyl 6-[6-(2,6-dioxopiperidin-3-yl)-5,7-dioxo-2,6-diazaspiro [3.4]octan-2-yl]pyridine-3-carboxylate] returned a Kd of 50 to 100 µM. For `Cn1ccc2c(N3CCC4(CCCC(=O)NC4=O)C3)ncnc21` (stereo not drawn) [Example 37, 2-(7-methylpyrrolo[2,3-d]pyrimidin-4-yl)-2,7-diazaspiro[4.6]undecane-6,8-dione] the value was ≥ 100 µM; for `CC(C)(C)OC(=O)N1CCC(c2ccc(OC3CCCC(=O)NC3=O)cc2)CC1` (stereo not drawn) [Example 276], ≥ 100 µM. As for `COc1ccc2sc(N3CC4(CC(=O)N(C5CCC(=O)NC5=O)C4=O)C3)nc2c1` (stereo not drawn) [Example 239, 6-(2,6-Dioxopiperidin-3-yl)-2-(5-methoxy-1,3-benzothiazol-2-yl)-2,6-diazaspiro[3.4]octane-5,7-dione], the dissociation constant Kd is < 50 µM. As for `Cc1sc2c(c1C)C(c1ccc(Cl)cc1)=N[C@@H](CC(=O)NCCCCCCc1ccc(C(=O)N3CCN(C4CCCC(=O)NC4=O)C(=O)C3)cc1Cl)c1nnc(C)n1-2` (stereo partly drawn) [Example 327, N-[6-[2-chloro-4-[4-(2,7-dioxoazepan-3-yl)-3-oxopiperazine-1-carbonyl]phenyl]hexyl]-2-[(9S)-7-(4-chlorophenyl)-4,5,13-trimethyl-3-thia-1,8,11,12-tetraazatricyclo[8.3.0.02,6]trideca-2(6),4,7,10,12-pentaen-9-yl]acetamide], the figure is < 50 µM.

With `CC(=O)Nc1ccc2nc(N3CCC4(CCCC(=O)NC4=O)C3)sc2c1` (stereo not drawn) [Example 87, N-[2-(6,8-dioxo-2,7-diazaspiro[4.6]undecan-2-yl)-1,3-benzothiazol-6-yl]acetamide], the dissociation constant (Kd) is ≥ 100 µM. For `Cc1sc2c(c1C)C(c1ccc(Cl)cc1)=N[C@@H](CC(=O)NCCCCCOc1ccc3nc(N4CCC5(CCCC(=O)NC5=O)C4)sc3c1)c1nnc(C)n1-2` (stereo partly drawn) [Example 322, 2-[(9S)-7-(4-chlorophenyl)-4,5,13-trimethyl-3-thia-1,8,11,12-tetraazatricyclo[8.3.0.02,6]trideca-2(6),4,7,10,12-pentaen-9-yl]-N-[5-[[2-(6,8-dioxo-2,7-diazaspiro[4.6]undecan-2-yl)-1,3-benzothiazol-6-yl]oxy]pentyl]acetamide] the value was < 50 µM. For the compound `CC(C)(C)OC(=O)N1CCN(c2ccnc(N3CCC4(CCCC(=O)NC4=O)C3)c2)CC1` (stereo not drawn) [Example 126, tert-Butyl 4-[2-(6,8-dioxo-2,7-diazaspiro [4.6]undecan-2-yl)-4-pyridyl]piperazine-1-carboxylate], the Kd is ≥ 100 µM.

With `CC(=O)Nc1cccc(C2CCCC(=O)NC2=O)c1` (stereo not drawn) [Example 71, N-[3-(2,7-Dioxoazepan-3-yl)phenyl]acetamide], the dissociation constant (Kd) is ≥ 100 µM. As for `Cn1nc(N2CC=CC(=O)NC2=O)c2ccc(Br)cc21` [Example 281, 3-(6-Bromo-1-methylindazol-3-yl)-4H-1,3-diazepine-2,7-dione], the figure is ≥ 100 µM; as for `CC(C)(C)OC(=O)COc1cccc(C(=O)NC2CCCC(=O)NC2=O)c1F` (stereo not drawn) [Example 67, tert-Butyl 2-[3-[(2,7-dioxoazepan-3-yl)carbamoyl]-2-fluorophenoxy]acetate], ≥ 100 µM. As for `CN(c1ccc([N+](=O)[O-])cc1)C1CCCC(=O)NC1=O` (stereo not drawn) [Example 120, 3-(N-Methyl-4-nitro-anilino) azepane-2,7-dione], the figure is ≥ 100 µM. For `O=C1CCCC2(CCN(c3ncc(Br)cn3)C2)C(=O)N1` (stereo not drawn) [Example 127, 2-(5-Bromopyrimidin-2-yl)-2,7-diazaspiro [4.6]undecane-6,8-dione] the value was ≥ 100 µM.
